Source: patent US20100035994A1, “NOVEL HYDRATE FORM OF O-DESMETHYL VENLAFAXINE SUCCINATE” (priority 2006, published 2010)
One block for each compound: values may come before it.

Tests used:
[1] = converted into form III on milling; per U.S. Pat. No. 6,673,838; cited from earlier work
[2] = in vivo; cited from earlier work
[3] = solubility of ODV succinate forms; format: physicochemical; details: novel hydrate form of the present invention

SMILES: CN(C)CC(c1ccc(O)cc1)C1(O)CCCCC1.O.O=C(O)CCC(=O)O (stereo not drawn) [ODV succinate monohydrate form I]
stability of polymorphic form on milling [1]: unstable

SMILES: CN(C)CC(c1ccc(O)cc1)C1(O)CCCCC1.O=C(O)CCC(=O)O (stereo not drawn) [ODV succinate, O-desmethyl venlafaxine succinate]
absorption in the gastrointestinal tract [2]: well absorbed

solubility [3]: 55 mg/mL
SMILES: CN(C)CC(c1ccc(O)cc1)C1(O)CCCCC1.O=C(O)CCC(=O)O (stereo not drawn) [novel hydrate form of ODV succinate, O-desmethyl venlafaxine succinate]
